The results in this text go back to article PMC8636514, “Therapeutic potential of TRPM8 antagonists in prostate cancer” (Scientific Reports, 2021).

One assay relates to PC3 cells. Description: Wound scratch assay in PC3 cells. The conditions noted are these: cycling or quiescent cells, 10 nM R1881, compound 1 µM. The assay is classed as cell-based. As for the experimental part:
(§1) In wound scratch analysis, 1.8 × 10^5 cells were seeded in a 24-well plate and made quiescent. Cells were then wounded using 10 µl sterile pipette tips and washed with PBS. They were left un-stimulated or stimulated for the indicated times, in the absence or presence of the selected compounds. To avoid cell proliferation, cytosine arabinoside (Sigma-Aldrich) at 50 μM (final concentration) was included in the cell medium. Different fields were analysed by contrast-phase microscopy, as below described in this section. Migration and invasion assays were done as reported. In migration assay, we used 3 × 10^4 cells in collagen pre-coated Boyden’s chambers with 8 μm polycarbonate membrane (Falcon). The indicated stimuli were added to the upper and the lower chambers. […] Migrating and invading cells were scored by fluorescence microscopy, as below described in this section.
(§2) In wound scratch assay, different fields were analysed using DMIRB inverted microscope (Leica) equipped with N-Plan 10 × objective (Leica), as reported. LNCaP organoids were analysed using the same microscope equipped with C-Plan 40 × or HCX PL Fluotar 63 × objectives (Leica). […] The relative organoid size was calculated using the same software and expressed as a fold increase over the basal organoid size (measured at 3th day). The wound gap was calculated using Image J Software and expressed as % of the decrease in the wound area. […]

For another assay, the system named is ERK, RSK. In words: Western blot of ERK and RSK activation in LNCaP cells. The assay is classed as cell-based, human. The conditions noted are these: compound 1 μM; for androgen-triggered ERK and RSK activation: 10 nM R1881, 10 min; for ERK and RSK phosphorylation/activation when used alone: no R1881. An excerpt:
(§3) All performed as reported. The mouse monoclonal anti-AR (441; Santa Cruz) antibody was used in Co-Ip or WB approaches. TRPM8 was detected using the rabbit polyclonal anti-TRPM8 (NBP1-97311; Novus Biological). […] The rabbit polyclonal anti-ERK (C-14; Santa Cruz), antibody was used to detect total ERK. FAK and P-Tyr397 FAK were detected using the mouse monoclonal anti-FAK (Clone 77/610077 BD Transduction Laboratories) or anti P-Tyr397 FAK (Clone 14/611722; BD Transduction Laboratories) antibodies, respectively. P-Tyr118 paxillin and total paxillin were detected using the rabbit polyclonal anti-P-Y118 (#2541, Cell Signaling) or the mouse monoclonal anti-paxillin (clone 349; BD Biosciences) antibodies, respectively. […] P-Tyr 416 Src and Src were detected using the rabbit monoclonal anti P-Tyr 416 Src (#6943; Cell Signaling) or the mouse monoclonal anti Src (Calbiochem) antibodies, respectively. ERα and ERβ were detected using the rabbit polyclonal anti-ERα (543; Santa Cruz) or anti-ERβ (Upstate Biotechnology, U.S.A.) antibodies. Cyclin D1, p27 and Cdk4 were stained using the mouse monoclonal anti-cyclin D1 (clone AM29; from Zymed Laboratories Inc.), the rabbit polyclonal anti-p27 (C-19; Santa Cruz) or anti Cdk-4 (c-22; Santa Cruz) antibodies, respectively. The mouse monoclonal anti-tubulin (Sigma-Aldrich) antibody was used to detect tubulin. The ECL system (GE Healthcare) was employed to reveal immune-reactive proteins. Densitometric analysis of WB was performed by using Image J Software (https://imagej.nih.gov/ij).
(In general: Immunoblotting shows a protein as a band on a membrane.)

The subject of a further assay is PSA. In words: PSA secretion (ELISA) from LNCaP cells. The assay is classed as cell-based, human. The conditions noted are these: compound 1 μM; for androgen-induced PSA secretion: 10 nM R1881, 48 h; for PSA secretion when used alone: no R1881. Here is the method:
It was done in culture medium using the PSA ELISA kit (Abnova-Taiwan Corporation, Taiwan), according to the manufacturer’s instructions. Released PSA was analyzed at 450 nm using the EnSpire Multimode Plate Reader (Perkin-Elmer, U.S.A.).
Background: ELISA stands for enzyme-linked immunosorbent assay.

The test system of assay [1] is DU145 cells. In words: DNA synthesis (BrdU incorporation) in DU145 cells. The assay is classed as cell-based. The note with it: cycling or androgen-stimulated (10 nM R1881) cells, compound 1 µM. Here is the method:
(§4) Cells on coverslips were pulsed in vivo with BrdU (Sigma-Aldrich; at 100 μM, final concentration) and left unchallenged or challenged with 10 nM R1881 for 18 h, in the absence or presence of the indicated compounds. Cells were fixed, permeabilized, washed and the BrdU incorporation was analysed as reported. Nuclei were stained with Hoechst and cells on coverslips were scored by IF microscopy, using a DMLB Leica (Leica) fluorescent microscope, equipped with HCX PL Apo 63 × oil objective. Different fields from each coverslip were analyzed and BrdU incorporation was calculated by the formula: percentage of BrdU-positive cells = (No. of BrdU-positive cells/No. of total cells) × 100. Data in the graphs derive from at least 1000 scored cells for each coverslip. Representative images were captured using DC480 camera (Leica) and acquired using Leica Suite software. They are representative of three different experiments.
For orientation: Uptake of a labelled nucleoside into DNA is a usual measure of proliferation.

The subject of assay [2] is DU-CaP cells. In words: Transmigration assay, DU-CaP cells. The assay is classed as cell-based, human. The conditions noted are these: 10 nM R1881, compound 1 μM; compared with LNCaP. Here is the method: as §1, §2
A further assay deals with C4-2B cells. In words: DNA synthesis (BrdU incorporation) in C4-2B cells. The assay is classed as cell-based, human. Here is the method:
as §4

In assay [3] the test system is 22Rv1 cells. In words: Invasion assay, 22Rv1 cells. The assay is classed as cell-based, human. The note with it: 10 nM R1881, compound 1 μM; compared with LNCaP. As for the experimental part: as §1, §2
Assay [4] deals with LNCaP cells. In words: Transmigration assay in Boyden chamber, LNCaP cells. The conditions noted are these: for androgen-induced cell migration: 10 nM R1881, compound 1 μM; for migration when added alone: compound 1 μM, no hormone. The assay is classed as cell-based, human. As for the experimental part: (§5) In wound scratch analysis, 1.8 × 10^5 cells were seeded in a 24-well plate and made quiescent. Cells were then wounded using 10 µl sterile pipette tips and washed with PBS. They were left un-stimulated or stimulated for the indicated times, in the absence or presence of the selected compounds. To avoid cell proliferation, cytosine arabinoside (Sigma-Aldrich) at 50 μM (final concentration) was included in the cell medium. Different fields were analysed by contrast-phase microscopy, as below described in this section. Migration and invasion assays were done as reported. In migration assay, we used 3 × 10^4 cells in collagen pre-coated Boyden’s chambers with 8 μm polycarbonate membrane (Falcon). The indicated stimuli were added to the upper and the lower chambers. Cytosine arabinoside (at 50 μM) was included in the cell medium. After 7 h, non-migrating cells from the membrane upper surface were removed using a sterile cotton swab. In invasion assay, we used 5 × 10^4 cells in Boyden’s chambers with 8 μm polycarbonate membrane (Falcon) pre-coated with growth factor reduced- and phenol red-free Matrigel (Corning). The indicated stimuli were added to the upper and the lower chambers. Cytosine arabinoside (at 50 μM) was included in the cell medium. After 24 h, non-invading cells from the membrane upper surface were removed using a sterile cotton swab. In migration and invasion assays, the membranes were fixed for 20 min in 4% paraformaldehyde, stained with Hoechst (Sigma-Aldrich), removed with forceps from the companion plate and mounted. Migrating and invading cells were scored by fluorescence microscopy, as below described in this section.
(§6) In wound scratch assay, different fields were analysed using DMIRB inverted microscope (Leica) equipped with N-Plan 10 × objective (Leica), as reported. LNCaP organoids were analysed using the same microscope equipped with C-Plan 40 × or HCX PL Fluotar 63 × objectives (Leica). Images were captured using a DFC 450C camera (Leica) and acquired using the Application Suite Software (Leica). They are representative of three different experiments. The relative organoid size was calculated using the same software and expressed as a fold increase over the basal organoid size (measured at 3th day). The wound gap was calculated using Image J Software and expressed as % of the decrease in the wound area. Migrating or invading cells from at least 30 fields/each membrane were scored, using a DMLB (Leica) fluorescent microscope, equipped with HCPL Fluotar 20 × objective.

The test system of assay [5] is DU-CaP cells. Description: DNA synthesis (BrdU incorporation) in DU-CaP cells. The assay is classed as cell-based, human. The conditions noted are these: 10 nM R1881, 18 h, compound 1 μM. As for the experimental part:
as §4

Assay [6] relates to 22Rv1 cells. In words: DNA synthesis (BrdU incorporation) in 22Rv1 cells. The assay is classed as cell-based, human. The conditions noted are these: 10 nM R1881, 18 h, compound 1 μM. Here is the method: as §4
Assay [7] relates to DU145 cells. In words: Wound scratch assay in DU145 cells. The assay is classed as cell-based. The note with it: cycling or quiescent cells, 10 nM R1881, compound 1 µM. As for the experimental part: as §1, §2
The subject of assay [8] is FAK, paxillin, ERK, RSK and Src tyrosine kinase. In words: Western blot of androgen-induced rapid actions in LNCaP cells (Fig. 6c). The assay is classed as cell-based, human. The note with it: 10 nM R1881, 10 min, compound 1 μM.
Text: as §3

The subject of a further assay is p27. In words: Western blot of p27 in LNCaP cells. The assay is classed as cell-based, human. The note with it: for P27, fold increase over the basal level: 15 h; for androgen-induced p27 down-regulation: R1881, compound 1 μM.
Text: as §3

Assay [9] concerns LNCaP cells. In words: Invasion assay in Matrigel, LNCaP cells. The assay is classed as cell-based, human. The note with it: for androgen-induced invasion: 10 nM R1881, compound 1 μM; for invasion in the absence of hormone: compound 1 μM alone. Here is the method: as §5, §6
Where [10] appears, read: cycling cells, 18 h, 100 nM and 1 μM.
[11] abbreviates: 1 nM R1881 + compound 1 μM, Fig 2e-f.

As for `c1ccc(COc2ccc3[nH]cc(CCNCc4ccc(Oc5ccccc5)cc4)c3c2)cc1` [Compound 4], the wound closure result in the assay on PC3 cells is reported as “did not modify”. In addition, in the assay with ERK, RSK, the “androgen-triggered ERK and RSK activation” value is “inhibited”; the “ERK and RSK phosphorylation/activation when used alone” value is “leaving unaffected”. Moreover, in the assay with PSA, the “androgen-induced PSA secretion” value is “negligible inhibition” and the “PSA secretion when used alone” value is listed as “Neither the two TRPM8 antagonists, nor enzalutamide did modify such response”. The BrdU incorporation entry in the assay on DU145 cells [1] was “did not affect”. Further, in the assay on DU-CaP cells [2], the androgen-induced migration entry is reported as “Superimposable results”. In the assay on C4-2B cells (setting [10]), the BrdU incorporation entry is “inhibited”. Also, in the assay with 22Rv1 cells [3], the androgen-induced invasion entry is “Superimposable results”. In the assay with LNCaP cells [4], the androgen-induced cell migration entry is reported as “inhibited” and the “migration when added alone” value is given as “leaving unaffected”. Besides, the “androgen-stimulated BrdU incorporation” value in the assay with DU-CaP cells [5] is recorded as “significantly inhibited”. Further, in the assay on 22Rv1 cells [6], the “androgen-stimulated BrdU incorporation” value is listed as “significantly inhibited”. The wound closure entry in the assay with DU145 cells [7] was “did not modify”. Moreover, the “androgen-elicited activation of FAK, paxillin, ERK, RSK and Src” value in assay [8] is “impaired at similar extent”. The “P27, fold increase over the basal level” value with p27 (setting [11]) was 1,1 fold. For the same molecule, the “androgen-induced p27 down-regulation” value in the assay on p27 is on record as “significantly impair”. Moreover, in the assay on LNCaP cells [9], the androgen-induced invasion entry is “reversed” and the “invasion in the absence of hormone” value was “negligible effect”.

As to `COC(=O)[C@H](Cc1c[nH]c2ccccc12)N(Cc1ccccc1)Cc1ccccc1` [Compound 6], the wound closure entry in the assay with PC3 cells and with DU145 cells [7] was “did not modify” throughout. Besides, the “androgen-triggered ERK and RSK activation” value with ERK, RSK is reported as “inhibited”. The “ERK and RSK phosphorylation/activation when used alone” value with ERK, RSK was “leaving unaffected”. Besides, the “androgen-induced PSA secretion” value with PSA is “negligible inhibition”. The “PSA secretion when used alone” value with PSA is reported as “Neither the two TRPM8 antagonists, nor enzalutamide did modify such response”. Also, the BrdU incorporation entry with DU145 cells [1] is “did not affect”; with C4-2B cells (setting [10]), “inhibited”. Besides, the androgen-induced migration entry with DU-CaP cells [2] is on record as “Superimposable results”. Also, the androgen-induced invasion entry with 22Rv1 cells [3] is “Superimposable results”; in the assay with LNCaP cells [9] it was “reversed”. The androgen-induced cell migration entry in the assay with LNCaP cells [4] is on record as “inhibited”. Moreover, the “migration when added alone” value in the assay with LNCaP cells [4] was “leaving unaffected”. For the same molecule, the “androgen-stimulated BrdU incorporation” value in the assay on DU-CaP cells [5] and in the assay with 22Rv1 cells [6] was “significantly inhibited” in each case. Further, in assay [8], the “androgen-elicited activation of FAK, paxillin, ERK, RSK and Src” value is listed as “impaired at similar extent”. The “P27, fold increase over the basal level” value in the assay with p27 (setting [11]) was 1 fold; in the assay on p27 (10 nM R1881 + compound 1 μM, Fig 2d), 1,1 fold. Moreover, in the assay with p27, the “androgen-induced p27 down-regulation” value is recorded as “significantly impair”. Besides, the “invasion in the absence of hormone” value with LNCaP cells [9] is “negligible effect”.

For `C[C@]1(O)CC[C@H]2[C@@H]3CCC4=CC(=O)CCC4=C3C=C[C@@]21C` [Compound R1881, reference compound], the BrdU incorporation entry in the assay with C4-2B cells (10 nM R1881 (not shown)) is given as “did not observe any effect”. Moreover, in the assay with LNCaP cells [4] (10 nM R1881 alone), the “increase in number of migrating cells” value is reported as about 3 folds. Further, the “P27, fold increase over the basal level” value in the assay on p27 (1 nM R1881 alone, Fig 2e) is 0,6 fold; in the assay on p27 (1 nM R1881 alone, Fig 2f), 0,6 fold; with p27 (10 nM R1881 alone, Fig 2d), 0,4 fold. The “increase in number of invading cells in Matrigel” value in the assay on LNCaP cells [9] (10 nM R1881 alone) is recorded as 1,6 folds.
